Assay results as given in article PMC9154192 (PLoS Biology, 2022).
“And” between values parts separate entries of the source, which are not always exact repeats. Equal entries are not always repeated. Where two headings read alike, the source gives them in different places.

Columns and labels:
M. tuberculosis H37Rv [1] = format: cell-based, Mycobacterium tuberculosis; settings: for CFU/ml (average) / Intracellular M. tuberculosis, % (Drug Free = 100.0) / CFU/ml, single values: H37Rv
M. tuberculosis H37Rv [2] = format: in vivo, BALB/c mice
M. tuberculosis H37Rv [3] = format: in vivo, BALB/c mice; parameters: Efficacy in BALB/C mouse model of pulmonary tuberculosis, Average / Efficacy in BALB/C mouse model of pulmonary tuberculosis, values of mice 1-6: unit not given here
XDR M. tuberculosis = format: cell-based, Mycobacterium tuberculosis
[4] = format: in vivo, Crl:CD SD rats; settings: single oral dose up to 2,000 mg/kg, SD rats, 2 weeks
Procedure: Toxicity studies were conducted at Biotoxtech (Korea) under review and approval from IACUC (170842, 180144, 170889) of Biotoxtech. All animals used in the toxicity test were purchased from OrientBio (Korea).
For acute toxicity study with a single oral administration, 6-week-old Crl:CD SD rats were used. For PP1S, a total of 8 groups (n = 4 rats/group) were used (0, 500, 1,000, and 2,000 mg/kg for females and males, respectively). For PP2S, a total of 4 groups (n = 5 rats/group) were used (0 and 2,000 mg/kg for females and males, respectively). […] Corn oil (Sigma, USA) was used as the vehicle. Control animals were treated only with the same volume of the vehicle.

[5] = Acute oral toxicity test in mice; format: in vivo, BALB/c mice; settings: single oral, 5 mice; for Deaths of mice, Days after dosing 0: day 0; for Deaths of mice, Days after dosing 1: day 1; for Deaths of mice, Days after dosing 2: day 2; for Deaths of mice, Days after dosing 3: day 3; for Deaths of mice, Days after dosing 4: day 4; for Deaths of mice, Days after dosing 5: day 5; for Deaths of mice, Days after dosing 6: day 6; for Deaths of mice, Days after dosing 7: day 7; for Deaths of mice, Days after dosing 8: day 8; for Deaths of mice, Days after dosing 9: day 9; for Deaths of mice, Days after dosing 10: day 10; for Deaths of mice, Days after dosing 11: day 11; for Deaths of mice, Days after dosing 12: day 12; for Deaths of mice, Days after dosing 13: day 13; for Deaths of mice, Days after dosing 14: day 14
Procedure: This experiment was conducted in a toxicity test at Soonchunhyang University's Animal Biological Safety Level 2 (ABSL-2) facility. The study protocol was reviewed and approved by Soonchunhyang University Animal Ethics Committee. Six-week-old female BALB/c were purchased from Koatech (Pyeongtaek, Korea) and five mice per group were tested. Drugs were orally administered once using a zonde and observed for two weeks. Corn oil (Sigma, USA) was used as the vehicle.

For `NNC(=O)c1ccncc1` [INH, isoniazid, reference compound], the “CFU/ml (average)” value (M. tuberculosis H37Rv [1]; Fig 3A, drug conc. 12.5) was 2420 CFU/ml, the “Intracellular M. tuberculosis, % (Drug Free = 100.0)” value (M. tuberculosis H37Rv [1]; Fig 3A, drug conc. 12.5) was 7.2% and the “CFU/ml (average)” value (M. tuberculosis H37Rv [1]; Fig 3A, drug conc. 25) was 203 CFU/ml. The “Intracellular M. tuberculosis, % (Drug Free = 100.0)” value (M. tuberculosis H37Rv [1]; Fig 3A, drug conc. 25) was 0.6%, the “CFU/ml (average)” value (M. tuberculosis H37Rv [1]; Fig 3B, drug conc. 12.5) was 2120 CFU/ml and the “Intracellular M. tuberculosis, % (Drug Free = 100.0)” value (M. tuberculosis H37Rv [1]; Fig 3B, drug conc. 12.5) was 6.3%. For the same molecule, the “CFU/ml (average)” value (M. tuberculosis H37Rv [1]; Fig 3B, drug conc. 25) was 133 CFU/ml, the “Intracellular M. tuberculosis, % (Drug Free = 100.0)” value (M. tuberculosis H37Rv [1]; Fig 3B, drug conc. 25) was 0.4% and the “Efficacy in BALB/C mouse model of pulmonary tuberculosis, Average” value (“Efficacy in BALB/C mouse model … Average” for short) (M. tuberculosis H37Rv [2]; Fig 4A, group dose 30, 6 mice) was 4583. The “reduction of bacterial load in lungs compared to drug-free group” value (M. tuberculosis H37Rv [2]; mouse, in vivo) was “similar”, the “granulomatous lesions in lung sections (HE staining)” value (M. tuberculosis H37Rv [2]; mouse, in vivo, po) was “limited number of small granulomatous lesions” and the “Efficacy in BALB/C mouse model … Average” value (M. tuberculosis H37Rv [3]; Fig 4C, group dose 30, 6 mice) was 226667.

In the case of `CCCCOc1ccc2cc(CN3C(=O)CC[C@H]3C(=O)OC)c3cc(OC)c(OC)cc3c2c1` [PP2S, Methyl (S)-1-((3-butoxy-6,7-dimethoxyphenanthren-9-yl)methyl)-5-oxopyrrolidine-2-carboxylate], the “growth of M. tuberculosis in macrophages (CFU)” value (XDR M. tuberculosis) is reported as “significantly inhibited the growth”, the “CFU/ml (average)” value (M. tuberculosis H37Rv [1]; Fig 3B, drug conc. 1.6) is reported as 26807 CFU/ml and the “CFU/ml, single values” (M. tuberculosis H37Rv [1]; Fig 3B, drug conc. 1.6) is reported as 23800 CFU/ml and 25500 CFU/ml and 31120 CFU/ml. For the same molecule, the “Intracellular M. tuberculosis, % (Drug Free = 100.0)” value (M. tuberculosis H37Rv [1]; Fig 3B, drug conc. 1.6) was 79.7%, the “CFU/ml (average)” value (M. tuberculosis H37Rv [1]; Fig 3B, drug conc. 3.1) was 22130 CFU/ml and the “CFU/ml, single values” (M. tuberculosis H37Rv [1]; Fig 3B, drug conc. 3.1) was 17950 CFU/ml and 21400 CFU/ml and 27040 CFU/ml. The “Intracellular M. tuberculosis, % (Drug Free = 100.0)” value (M. tuberculosis H37Rv [1]; Fig 3B, drug conc. 3.1) was 65.8%, the “CFU/ml (average)” value (M. tuberculosis H37Rv [1]; Fig 3B, drug conc. 6.3) was 12950 CFU/ml and the “Intracellular M. tuberculosis, % (Drug Free = 100.0)” value (M. tuberculosis H37Rv [1]; Fig 3B, drug conc. 6.3) was 38.5%. The “CFU/ml (average)” value (M. tuberculosis H37Rv [1]; Fig 3B, drug conc. 12.5) was 7367 CFU/ml, the “Intracellular M. tuberculosis, % (Drug Free = 100.0)” value (M. tuberculosis H37Rv [1]; Fig 3B, drug conc. 12.5) was 21.9% and the “CFU/ml (average)” value (M. tuberculosis H37Rv [1]; Fig 3B, drug conc. 25) was 640 CFU/ml. The “Intracellular M. tuberculosis, % (Drug Free = 100.0)” value (M. tuberculosis H37Rv [1]; Fig 3B, drug conc. 25) was 1.9%, the “growth of M. tuberculosis in macrophages (CFU)” value (M. tuberculosis H37Rv [1]; H37Rv in Raw 264.7 cells, 3 days, concentration-dependent) was “significantly inhibited the growth” and the “change in body weight compared to control group” value [4] was “no significant change”. The “clinical symptoms and death” value [4] was “not observed”, the “Deaths of mice, Days after dosing 0” value ([5]; Dose 500 mg/kg) was 0 and the “Deaths of mice, Days after dosing 1” value ([5]; Dose 500 mg/kg) was 0. For the same molecule, the “Deaths of mice, Days after dosing 2” value ([5]; Dose 500 mg/kg) was 0, the “Deaths of mice, Days after dosing 3” value ([5]; Dose 500 mg/kg) was 0 and the “Deaths of mice, Days after dosing 4” value ([5]; Dose 500 mg/kg) was 0. For the same molecule, the “Deaths of mice, Days after dosing 5” value ([5]; Dose 500 mg/kg) was 0, the “Deaths of mice, Days after dosing 6” value ([5]; Dose 500 mg/kg) was 0 and the “Deaths of mice, Days after dosing 7” value ([5]; Dose 500 mg/kg) was 0. The “Deaths of mice, Days after dosing 8” value ([5]; Dose 500 mg/kg) was 0, the “Deaths of mice, Days after dosing 9” value ([5]; Dose 500 mg/kg) was 0 and the “Deaths of mice, Days after dosing 10” value ([5]; Dose 500 mg/kg) was 0. For the same molecule, the “Deaths of mice, Days after dosing 11” value ([5]; Dose 500 mg/kg) was 0, the “Deaths of mice, Days after dosing 12” value ([5]; Dose 500 mg/kg) was 0 and the “Deaths of mice, Days after dosing 13” value ([5]; Dose 500 mg/kg) was 0. The “Deaths of mice, Days after dosing 14” value ([5]; Dose 500 mg/kg) was 0, the “Deaths of mice, Days after dosing 0” value ([5]; Dose 1000 mg/kg) was 0 and the “Deaths of mice, Days after dosing 1” value ([5]; Dose 1000 mg/kg) was 0. The “Deaths of mice, Days after dosing 2” value ([5]; Dose 1000 mg/kg) was 0, the “Deaths of mice, Days after dosing 3” value ([5]; Dose 1000 mg/kg) was 0 and the “Deaths of mice, Days after dosing 4” value ([5]; Dose 1000 mg/kg) was 0. For the same molecule, the “Deaths of mice, Days after dosing 5” value ([5]; Dose 1000 mg/kg) was 0, the “Deaths of mice, Days after dosing 6” value ([5]; Dose 1000 mg/kg) was 0 and the “Deaths of mice, Days after dosing 7” value ([5]; Dose 1000 mg/kg) was 0. The “Deaths of mice, Days after dosing 8” value ([5]; Dose 1000 mg/kg) was 0, the “Deaths of mice, Days after dosing 9” value ([5]; Dose 1000 mg/kg) was 0 and the “Deaths of mice, Days after dosing 10” value ([5]; Dose 1000 mg/kg) was 0. The “Deaths of mice, Days after dosing 11” value ([5]; Dose 1000 mg/kg) was 0, the “Deaths of mice, Days after dosing 12” value ([5]; Dose 1000 mg/kg) was 0 and the “Deaths of mice, Days after dosing 13” value ([5]; Dose 1000 mg/kg) was 0. For the same molecule, the “Deaths of mice, Days after dosing 14” value ([5]; Dose 1000 mg/kg) was 0, the “Deaths of mice, Days after dosing 0” value ([5]; Dose 2000 mg/kg) was 0 and the “Deaths of mice, Days after dosing 1” value ([5]; Dose 2000 mg/kg) was 0. For the same molecule, the “Deaths of mice, Days after dosing 2” value ([5]; Dose 2000 mg/kg) was 0, the “Deaths of mice, Days after dosing 3” value ([5]; Dose 2000 mg/kg) was 0 and the “Deaths of mice, Days after dosing 4” value ([5]; Dose 2000 mg/kg) was 0. For the same molecule, the “Deaths of mice, Days after dosing 5” value ([5]; Dose 2000 mg/kg) was 0, the “Deaths of mice, Days after dosing 6” value ([5]; Dose 2000 mg/kg) was 0 and the “Deaths of mice, Days after dosing 7” value ([5]; Dose 2000 mg/kg) was 0. For the same molecule, the “Deaths of mice, Days after dosing 8” value ([5]; Dose 2000 mg/kg) was 0, the “Deaths of mice, Days after dosing 9” value ([5]; Dose 2000 mg/kg) was 0 and the “Deaths of mice, Days after dosing 10” value ([5]; Dose 2000 mg/kg) was 0. The “Deaths of mice, Days after dosing 11” value ([5]; Dose 2000 mg/kg) was 0, the “Deaths of mice, Days after dosing 12” value ([5]; Dose 2000 mg/kg) was 0 and the “Deaths of mice, Days after dosing 13” value ([5]; Dose 2000 mg/kg) was 0. The “Deaths of mice, Days after dosing 14” value ([5]; Dose 2000 mg/kg) was 0, the “Efficacy in BALB/C mouse model of pulmonary tuberculosis, values of mice 1-6” value (M. tuberculosis H37Rv [3]; Fig 4C, group dose 30) was 3500000 and 3600000 and 2100000 and 2300000 and 3900000 and 3400000 and the “Efficacy in BALB/C mouse model … Average” value (M. tuberculosis H37Rv [3]; Fig 4C, group dose 30, 6 mice) was 3133333. The “Efficacy in BALB/C mouse model … Average” value (M. tuberculosis H37Rv [3]; Fig 4C, group dose 100, 6 mice) was 550000 and the “bacterial burden in the lungs compared to control group” value (M. tuberculosis H37Rv [3]; mouse, in vivo, po) was “significantly reduced”.
